# Reference: US20250251402A1, “METHODS OF DETECTING MOLECULAR AGGREGATES USING IMAGE CORRELATION SPECTROSCOPY (ICS)” (The General Hospital Corporation, priority 2022, published 2025)
# Columns and labels:
# SKOV3 cells [1] = assay: γH2AX immunofluorescence in SKOV3 cells (intensity, Imaris Spots, ICS TNoP and DA); type: cell-based
# Source text: (§1) For the ICS analysis, nuclei were segmented from the DAPI channel using a watershed approach in MATLAB. Briefly, we applied a difference of gaussians for size-based feature extraction of nuclei in the image (upper gaussian σ=100, lower gaussian σ=2-5 dependent on cell size). This feature enhanced image was then binarized to create a primary mask (using the function imbinarize) and connected components under 100 pixels were removed (using the function bwareaopen). We then created a distance transform of the resulting binary image (using the function bwdist). Seed points were determined by finding the regional maximum of a gaussian filtered image, with a gaussian σ of appropriate size for seed point detection (σ×7 or 8 dependent on cell size). The seed points were applied to the distance transform, and we applied the watershed function to the resulting image to obtain masks for each nucleus (extracted using the function regionprops).
# (§2) Using the nucleus masks, we performed ICS analysis on the antibody-stained channel, within size limitations for a nucleus (objects >400 and <2400 pixels). Intensity, DA and TNOP were calculated for each cell. In this analysis, since the ROI is defined by the nucleus mask (segmented from nuclear signal using DAPI staining), TNoP represents the total number of particles per nucleus, with the image area being the number of pixels in each nuclear mask.
# (§3) Measurements across experiments were normalized by the control in each dataset. […] Data were plotted in Prism and statistical analysis was performed in Excel.
# (§4) Imaris spots analysis were performed with Imaris 9.8 with background subtraction, using a spot size of 1 μm that was measured from the smallest distinguishable foci from the control image. For images with multiple nuclei, ImarisCell was used with the detection type “cell and vesicles”, where the nucleus in the DAPI channel was modelled as the “cell” and antibody-labeled foci were modelled as the “vesicles”. This enabled us to count the number of foci per nucleus for multiple cells. In each dataset, the automatic “quality” threshold was determined from the control image and the same threshold was used for every image in the dataset to be able to compare the outputs across datasets. Similar to the ICS analysis, only cells with an area between 400-2400 voxels were included for analysis.
# (§5) All chemicals were purchased from Sigma unless otherwise noted. All drugs were purchased from Selleck Chemicals. Cells were cultured in media supplemented with 10% fetal bovine serum and 1% penicillin/streptomycin. OVCA429 were originally obtained from Dr. Michael Birrer and cultured in DMEM. SKOV3 was obtained from ATCC and cultured in RPMI. For MMS treatment, cells were incubated for 6 hours before fixation with 4% formaldehyde, whereas for treatment with PARP inhibitors, cells were incubated for 24 hours before fixation.
# (§6) Cells were plated in 8-well slides (Fisher) to achieve 50% confluence overnight. Cells were then treated and fixed with 4% formaldehyde in PBS at room temperature for 10 minutes. Antibody staining was performed according to the manufacturers protocol (Cell Signaling Technologies or Abcam). Primary antibodies used were γH2AX (CST, #2577), RPA1 (CST, #2267) and RAD51 (Abcam, 63801), with Anti-rabbit IgG Fab2 Alexa Fluor 647 (CST, #4414) as the secondary fluorescent antibody. After antibody labeling, prolong gold with DAPI (CST) was added and samples were stored for up to 1 week prior to imaging. Confocal imaging was performed on an Olympus FV1000 multiphoton/confocal microscope using an Olympus XLUMPlanFL N 20× objective, NA 1.00 with chromatic correction, and 3× digital zoom. DAPI was excited with a 405 nm laser, while Alexa Fluor 647 was excited with a 635 nm laser. A multiband (DM 405/488/561/633 nm) dichroic mirror was used to direct the excitation laser and collect emission. […]
# HCC1937 cells = assay: 53BP1-mApple condensate anisotropy (homo-FRET) and intensity in HCC1937 cells; type: cell-based; conditions: HCC1937, 1 μM PARPi and 100 μM TMZ for 1 hour
# Protocol: (§7) All fluorescence imaging was performed on an Olympus FV1000 multiphoton/confocal microscope. Anisotropy measurements were performed through custom modifications to the imaging system as previously described (30). Briefly, linear polarization of two photon excitation light at 910 nm (MaiTai femtosecond laser, Spectra Physics) was controlled by a glan-thompson prism and half wave plate. […] was collected in orthogonal orientations through two detectors, parallel and perpendicular to excitation polarization, through a polarizing beam splitter that replaced a dichroic mirror in the emission filter cube. The alignment and detector gain and noise were validated each imaging session through measurements of a standard slide. Images were taken with an Olympus 25× XLPlan N objective, NA 1.05, and 3× digital zoom. Confocal imaging was performed with an Olympus XLUMPlanFL N 20× objective, NA 1.00 with chromatic correction, and 3× digital zoom.
# Cells were grown on 12 mm round, uncoated, sterilized glass coverslips in 24-well plates for 24 hours. Cells were treated with PARPi and 100 μM TMZ for 1 hour or 10 nM GMX1778 overnight followed by 100 μM TMZ for 1 hour. TMZ was added to stimulate new DNA damage induced condensates in the presence of PARPi or NAD″ depletion. Cells were then transferred to the microscope for anisotropy imaging. Images were analyzed in MATLAB. Nuclei were segmented through intensity thresholding and condensates were segmented through further intensity thresholding with a higher threshold. Values of segmented nuclei and condensates were determined through the regionprops function. Segmentation was corrected through area restrictions to ensure that regions of interest were isolated condensates. The thresholding parameters were consistent throughout experiments. The average intensity and anisotropy of each segmented nuclei or condensate was then calculated. Data were plotted in Prism and analysis performed in Prism or Excel.
# PARP1 [2] = biological target: T1, PARP1 (Homo sapiens, UniProt P09874); conditions: actual rate multiplied by 10^−7 for the stochastic model
# Source text: ka (trap): The association constant of PARPi for PARP1. […] Values were taken as an average of previous measurements. […] Values were taken as an average of previous measurements. […] Values were taken as an average of previous measurements.
# Association of PARPi to PARP1 (p.ka_trap): The association constant of each PARPi on PARP1. […] Rates were corrected to account for the interpretation of PARP1 concentration relative to DNA through multiplying the actual rate by 10^−7. This rate correction was performed for all association constants.
# OVCA429 cells [3] = assay: γH2AX immunofluorescence in OVCA429 cells (intensity, Imaris Spots, ICS TNoP and DA); type: cell-based
# Source text: as §1, §2, §3, §4, §5, §6
# HT1080 cells = assay: 53BP1-mApple condensate anisotropy and intensity in HT1080 cells; type: cell-based; conditions: HT1080, increased veliparib concentrations
# Protocol: as §7
# Cells were grown on 12 mm round, uncoated, sterilized glass coverslips in 24-well plates for 24 hours. Cells were treated with PARPi and 100 μM TMZ for 1 hour or 10 nM GMX1778 overnight followed by 100 μM TMZ for 1 hour. […] Images were analyzed in MATLAB. […] Values of segmented nuclei and condensates were determined through the regionprops function. […] The average intensity and anisotropy of each segmented nuclei or condensate was then calculated. […]
# PARP1-DNA = PARP1-DNA (Homo sapiens, UniProt P09874); conditions: from previous findings; cited from earlier work
# PARP1 [4] = biological target: T1, PARP1; conditions: average of previous measurements; cited from earlier work
# PARP1 [5] = biological target: T1, PARP1; assay: PARP1 trapping by chromatin fractionation in HT1080 cells; type: cell-based; conditions: HT1080, 100 μM veliparib vs 1 μM talazoparib
# Protocol: Lysate was then pelleted by centrifugation at 14,000 g for 15 min at 4° C. Supernatant was transferred to a clean tube and total protein was determined using a BCA assay (Pierce). Protein was loaded into a NuPAGE gel (Thermo Fisher) and transferred to nitrocellulose paper (Thermo Fisher). Blocking and antibody labeling was then carried out according to the antibody manufacturer's protocol. For PAR measurements, cells were treated with TMZ for 1 hour, or 1 μM H2O2 for 10 minutes in 6-well plates. Cells were trypsinized and washed once with PBS prior to cell lysis. Western blot expression levels were quantified by inverting the red channel of an image of the blot in FIJI, subtracting the background intensity and measuring the total intensity of the lane. These values where then normalized to the control signal. […] The media was removed, and cells were scraped off the culture dish in 1 ml PBS. The cells were pelleted by centrifugation at 500 g for 4 minutes at 4° C. and the solution was removed. Pellets were resuspended in 250 μl lysis buffer (10 mM HEPES, 10 mM KCl, 1.5 mM MgCl2, 340 mM sucrose, 10% glycerol, 0.1% Triton X-100, pH 7.9, protease inhibitors (Thermo Fisher)) and incubated on ice for 10 minutes. Nuclei were separated by centrifugation at 1300 g for 5 minutes at 4° C. and the solution was collected (cytoplasm fraction). […]
# PARP = PARP (Homo sapiens, UniProt P09874); conditions: HT1080, 1 μM PARPi, 500 nM fluorescent olaparib
# Protocol: Cells were grown on 25 mm round, uncoated, sterilized glass coverslips in 6-well plates for 24 hours. […] Coverslips were removed from the 6-well plates, mounted onto a perfusion chamber (Warner Instruments), sealed with vacuum grease and perfused with a custom tubing setup. The chamber was then mounted onto the microscope and temperature was maintained at 37° C. using a heating pad and feedback loop. Cells were initially located using fluorescent drug or autofluorescence and allowed to temperature equilibrate on the microscope stage for at least 5 minutes. Images were acquired using the anisotropy configuration as described above. After initial images were acquired, the chamber was perfused with 10× volume of the wash media containing fluorescent drug while chamber media and excess wash media were aspirated out of the chamber with vacuum. Images were then acquired at the desired time points while correcting for any drift. Association of fluorescent drug measurements were performed through rapid addition of media containing fluorescent drug (500 nM) and immediate image acquisition.
# Nuclei were segmented in MATLAB and the average nuclear intensity and anisotropy were calculated using the regionprops function. […] Values were then plotted as a function of time, with t=0 when PARPi was removed, in Prism (Graphpad) and a one phase association curve was fit to obtain the binding rate. […]
# 53BP1 = assay: Autocorrelation (ICS DA) of 53BP1 in phenotypic screen images, cell line not specified; type: cell-based; conditions: at least one cell line of A549, WPMY-1, HepG2
# Protocol: Images from the original study (8) were accessed through the Image Data Resource (32) API on the Open Microscopy environment. Nuclei were segmented using StarDist (33) on the BFP channel image. Segmented nuclei were then analyzed by image correlation spectroscopy autocorrelation (34) in the TP53BP1 channel and the average degree of aggregation (DA) was calculated. […] Active compounds were defined as having significant (p<0.05) non-zero linear regressions, either negative or positive. The activity score was determine by summing the direction of each active compound and dividing by the total number of compounds in the MoA.
# We accessed the original phenotypic screen (8) images through the IDR API on the Open Microscopy server. The screen contained three different cell lines that had endogenous TP53BP1 labeled GFP as a marker protein. We first identified all the images from these three cell lines (>60,000 images in total), then segmented the nuclei of each cell using the BFP channel image. Segmented nuclear regions were then transferred to the TP53BP1 image and image autocorrelation was performed on each nucleus. The degree of aggregation (DA, a measurement of fluorophore clustering) for each nucleus was then averaged to produce an overall image 53BP1 DA that corresponded to the compound and compound concentration. The dataset contained repeats of four different doses for each compound. The activity of each compound in each cell line was then determined by fitting a linear regression to the DA as a function of compound concentration. The slope and significance versus the null hypothesis (slope equal to zero) of DA vs. concentration was then determined. Active compounds were defined as those having a significant (p<0.05) slope of DA vs. concentration.
# 53BP1 DA is a measure of protein labeled fluorophore clustering within the nucleus. […] Yet, given the highly characterized role of 53BP1 in the DNA damage response (9), recruitment to DNA damage response foci is likely the most prominent driver of measured activity.
# SKOV3 cells [6] = assay: RAD51 immunofluorescence in SKOV3 cells (Imaris Spots, ICS DA); type: cell-based
# Source text: as §1, §2
# Imaris spots analysis were performed with Imaris 9.8 with background subtraction, using a spot size of 1 μm that was measured from the smallest distinguishable foci from the control image. For images with multiple nuclei, ImarisCell was used with the detection type “cell and vesicles”, where the nucleus in the DAPI channel was modelled as the “cell” and antibody-labeled foci were modelled as the “vesicles”. This enabled us to count the number of foci per nucleus for multiple cells. In each dataset, the automatic “quality” threshold was determined from the control image and the same threshold was used for every image in the dataset to be able to compare the outputs across datasets. […]
# SKOV3 cells [7] = assay: RPA1 immunofluorescence in SKOV3 cells (Imaris Spots, ICS DA); type: cell-based
# Source text: as §1, with “The seed points were applied to the distance transform, and we applied the watershed function to the resulting image to obtain masks for each nucleus (extracted using the function regionprops).” left out
# (§8) Using the nucleus masks, we performed ICS analysis on the antibody-stained channel, within size limitations for a nucleus (objects >400 and <2400 pixels). Intensity, DA and TNOP were calculated for each cell. […]
# (§9) Imaris spots analysis were performed with Imaris 9.8 with background subtraction, using a spot size of 1 μm that was measured from the smallest distinguishable foci from the control image. […] In each dataset, the automatic “quality” threshold was determined from the control image and the same threshold was used for every image in the dataset to be able to compare the outputs across datasets. […]
# OVCA429 cells [8] = assay: RAD51 immunofluorescence in OVCA429 cells (Imaris Spots, ICS DA); type: cell-based
# Source text: as §1, with “The seed points were applied to the distance transform, and we applied the watershed function to the resulting image to obtain masks for each nucleus (extracted using the function regionprops).” left out
# as §8, §9
# OVCA429 cells [9] = assay: RPA1 immunofluorescence in OVCA429 cells (Imaris Spots, ICS DA); type: cell-based
# Source text: as §1, with “The seed points were applied to the distance transform, and we applied the watershed function to the resulting image to obtain masks for each nucleus (extracted using the function regionprops).” left out
# as §8, §9
# T1 sequence (P09874 whole entry, species assumed): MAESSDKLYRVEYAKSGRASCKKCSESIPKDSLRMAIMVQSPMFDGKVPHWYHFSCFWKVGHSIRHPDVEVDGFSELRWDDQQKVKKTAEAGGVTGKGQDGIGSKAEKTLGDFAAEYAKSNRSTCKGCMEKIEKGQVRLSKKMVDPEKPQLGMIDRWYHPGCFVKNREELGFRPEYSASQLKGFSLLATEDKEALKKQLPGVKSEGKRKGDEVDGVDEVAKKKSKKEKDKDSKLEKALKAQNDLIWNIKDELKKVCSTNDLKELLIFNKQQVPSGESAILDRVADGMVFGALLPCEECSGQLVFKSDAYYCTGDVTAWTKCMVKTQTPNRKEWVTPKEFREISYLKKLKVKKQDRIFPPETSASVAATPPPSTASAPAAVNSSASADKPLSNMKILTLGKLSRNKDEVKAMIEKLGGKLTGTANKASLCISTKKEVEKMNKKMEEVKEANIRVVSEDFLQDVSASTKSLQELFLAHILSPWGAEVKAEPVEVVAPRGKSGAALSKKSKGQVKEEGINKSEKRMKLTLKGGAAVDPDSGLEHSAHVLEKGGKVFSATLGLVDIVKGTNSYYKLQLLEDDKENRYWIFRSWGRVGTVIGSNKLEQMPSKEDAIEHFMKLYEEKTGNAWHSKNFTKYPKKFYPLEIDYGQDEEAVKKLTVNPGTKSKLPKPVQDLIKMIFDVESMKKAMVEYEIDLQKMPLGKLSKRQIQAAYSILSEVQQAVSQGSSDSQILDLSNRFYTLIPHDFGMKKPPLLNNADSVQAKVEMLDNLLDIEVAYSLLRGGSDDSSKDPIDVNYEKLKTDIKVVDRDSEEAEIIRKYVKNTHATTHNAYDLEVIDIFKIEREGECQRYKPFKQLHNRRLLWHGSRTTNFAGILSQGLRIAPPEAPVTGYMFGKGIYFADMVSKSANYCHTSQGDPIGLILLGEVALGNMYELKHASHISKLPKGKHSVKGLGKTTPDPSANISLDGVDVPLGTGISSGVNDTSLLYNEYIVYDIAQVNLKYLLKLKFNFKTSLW
# Sequence of PARP (P09874 2-1014): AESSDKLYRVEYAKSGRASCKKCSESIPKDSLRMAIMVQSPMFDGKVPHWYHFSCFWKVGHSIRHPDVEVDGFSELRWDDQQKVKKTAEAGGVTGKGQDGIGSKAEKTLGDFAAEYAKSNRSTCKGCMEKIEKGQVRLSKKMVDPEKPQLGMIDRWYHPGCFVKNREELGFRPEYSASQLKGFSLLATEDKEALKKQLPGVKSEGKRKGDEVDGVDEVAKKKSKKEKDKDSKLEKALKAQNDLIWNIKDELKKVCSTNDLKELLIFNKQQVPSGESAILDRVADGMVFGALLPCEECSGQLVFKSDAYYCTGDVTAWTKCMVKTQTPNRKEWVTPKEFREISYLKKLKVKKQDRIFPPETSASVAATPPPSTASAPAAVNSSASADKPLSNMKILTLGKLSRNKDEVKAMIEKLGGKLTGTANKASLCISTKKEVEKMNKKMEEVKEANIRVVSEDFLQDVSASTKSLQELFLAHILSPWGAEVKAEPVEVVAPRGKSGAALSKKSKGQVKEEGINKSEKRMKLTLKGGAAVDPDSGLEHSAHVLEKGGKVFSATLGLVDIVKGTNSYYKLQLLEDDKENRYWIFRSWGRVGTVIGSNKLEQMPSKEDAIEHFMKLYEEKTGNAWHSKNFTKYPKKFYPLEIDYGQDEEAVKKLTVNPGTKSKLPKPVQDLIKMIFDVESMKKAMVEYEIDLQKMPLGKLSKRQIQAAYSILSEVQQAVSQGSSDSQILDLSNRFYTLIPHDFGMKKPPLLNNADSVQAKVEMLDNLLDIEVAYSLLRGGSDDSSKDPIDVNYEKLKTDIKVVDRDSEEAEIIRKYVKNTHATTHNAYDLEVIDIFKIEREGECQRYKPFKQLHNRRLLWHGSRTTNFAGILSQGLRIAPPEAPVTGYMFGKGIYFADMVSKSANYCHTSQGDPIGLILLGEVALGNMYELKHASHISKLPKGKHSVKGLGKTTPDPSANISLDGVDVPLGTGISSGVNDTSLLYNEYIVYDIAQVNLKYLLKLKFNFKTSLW
# Sequence of PARP1-DNA (P09874 whole entry): as the sequence (P09874 whole entry, species assumed) above
compound,measurement,setting,value
C[C@]1(c2nc3c(C(N)=O)cccc3[nH]2)CCCN1 [veliparib],"ICS TNoP of γH2AX, dose dependence",SKOV3 cells [1]; SKOV3,failed to induce any correlative TNOP dose dependence
same,Normalized γH2AX intensity,"SKOV3 cells [1]; SKOV3, 1 μM veliparib, 24 hours",slight decrease
same,"ICS DA of γH2AX at 100 μM, compared to respective controls","SKOV3 cells [1]; SKOV3, 100 μM",higher value than 100 μM olaparib
same,Number of γH2AX foci (Imaris Spots) at the highest dose of PARP inhibitor,"SKOV3 cells [1]; SKOV3, highest dose",higher
same,53BP1-mApple condensate anisotropy vs control,HCC1937 cells,not
same,"p.ka_trap: association of PARPi to PARP1, corrected rate",PARP1 [2],0.18 M⁻¹ s⁻¹
same,"ICS DA of γH2AX, dose dependence",OVCA429 cells [3]; OVCA429,full dose dependent increases in γH2AX clustering
same,"Imaris Spots analysis of γH2AX, dose dependence",OVCA429 cells [3]; OVCA429,failed to capture the full dose dependent DNA damage
same,"γH2AX intensity, dose dependence","OVCA429 cells [3]; OVCA429, PARP inhibitors",did not show a dose dependence
same,Condensate 53BP1-mApple intensity,HT1080 cells,lowered condensate 53BP1-mApple intensity
same,kd (rel PARPi): dissociation constant of PARPi-PARP1 from DNA,PARP1-DNA,0.00408 s⁻¹
same,ka (trap): association constant of PARPi for PARP1,PARP1 [4],1.8e+06 M⁻¹ s⁻¹
same,kd (trap): dissociation of PARPi from PARP1(-DNA),PARP1 [4],0.005 s⁻¹
same,PARP1 trapping,PARP1 [5],unable to reproduce the trapping observed with just 1 μM talazoparib
same,Apparent dissociation constant (koff) of PARPi in live cells,PARP,values similar to those previously determined in purified protein
O=c1[nH]cnc2ccccc12 [4-HQN],53BP1 DA vs. concentration regression (53BP1 recruitment),53BP1,increased 53BP1 recruitment
COc1ccc(C(=O)C2CCN(CC(=O)N(Cc3nc4c(c(=O)[nH]3)COCC4)CC3CC3)CC2)cc1 [NVP-TNKS656],53BP1 DA vs. concentration regression (53BP1 recruitment),53BP1,increased 53BP1 recruitment
"COS(C)(=O)=O [MMS, methyl methane-sulfonate]","RAD51 ICS DA, dose dependence",SKOV3 cells [6]; SKOV3,dose dependent increases in aggregation
same,"RAD51 Imaris Spots analysis, dose dependence",SKOV3 cells [6]; SKOV3,did not show an overall MMS dose dependency
same,"RAD51 ICS DA, increase over control","SKOV3 cells [6]; SKOV3, 1 mM MMS",3 ×
same,"ICS degree of aggregation (DA) of γH2AX, dose dependence",SKOV3 cells [1]; SKOV3,dose dependence
same,"Normalized γH2AX intensity, increase","SKOV3 cells [1]; SKOV3, highest MMS dose, normalized to untreated control",~8 ×
same,"RPA1 clustering (Spots analysis and ICS DA), dose dependence",SKOV3 cells [7],dose dependent increase in RPA1 clustering
same,"ICS DA of γH2AX, dose dependence",OVCA429 cells [3]; OVCA429,results similar to Spots analysis
same,"ICS TNoP of γH2AX, dose dependence",OVCA429 cells [3]; OVCA429,did not produce any MMS dose dependence
same,"Imaris Spots analysis of γH2AX, dose dependence",OVCA429 cells [3]; OVCA429,captured the MMS dose dependent DNA damage
same,γH2AX intensity,"OVCA429 cells [3]; OVCA429, 1 mM MMS",drastically increases
same,"RAD51 ICS DA, dose dependence",OVCA429 cells [8],dose dependent increases in aggregation
same,"RAD51 Imaris Spots analysis, dose dependence",OVCA429 cells [8],did not show an overall MMS dose dependency
same,"RPA1 Imaris Spots analysis, dose dependence",OVCA429 cells [9]; OVCA429,more modest increase with increasing MMS dose
same,"RPA1 ICS DA, increase in aggregation","OVCA429 cells [9]; OVCA429, 1 mM MMS",exceeding 2.5 × of control
